According to paper PMC4774911, “Biochemical Screening of Five Protein Kinases from Plasmodium falciparum against 14,000 Cell-Active Compounds” (PLoS ONE, 2016):
Where “and” joins values, the source holds several entries; their conditions need not be identical. Equal entries are not always repeated.

Tests used:
Assay in all cases: biochemical
Design in all cases: endogenous in cells; host or cells: K562 cell extract; species or system K562 (extract); replicate k of n = 2 (each experiment ID is one independent experiment; two experiment IDs per compound)
Conditions in all cases: read-out: KDapp
JAK2 = JAK2 (Homo sapiens, UniProt O60674)
NEK9 = molecular target: T1, NEK9 (Homo sapiens, UniProt Q8TD19)
T1 sequence (Q8TD19 1-979): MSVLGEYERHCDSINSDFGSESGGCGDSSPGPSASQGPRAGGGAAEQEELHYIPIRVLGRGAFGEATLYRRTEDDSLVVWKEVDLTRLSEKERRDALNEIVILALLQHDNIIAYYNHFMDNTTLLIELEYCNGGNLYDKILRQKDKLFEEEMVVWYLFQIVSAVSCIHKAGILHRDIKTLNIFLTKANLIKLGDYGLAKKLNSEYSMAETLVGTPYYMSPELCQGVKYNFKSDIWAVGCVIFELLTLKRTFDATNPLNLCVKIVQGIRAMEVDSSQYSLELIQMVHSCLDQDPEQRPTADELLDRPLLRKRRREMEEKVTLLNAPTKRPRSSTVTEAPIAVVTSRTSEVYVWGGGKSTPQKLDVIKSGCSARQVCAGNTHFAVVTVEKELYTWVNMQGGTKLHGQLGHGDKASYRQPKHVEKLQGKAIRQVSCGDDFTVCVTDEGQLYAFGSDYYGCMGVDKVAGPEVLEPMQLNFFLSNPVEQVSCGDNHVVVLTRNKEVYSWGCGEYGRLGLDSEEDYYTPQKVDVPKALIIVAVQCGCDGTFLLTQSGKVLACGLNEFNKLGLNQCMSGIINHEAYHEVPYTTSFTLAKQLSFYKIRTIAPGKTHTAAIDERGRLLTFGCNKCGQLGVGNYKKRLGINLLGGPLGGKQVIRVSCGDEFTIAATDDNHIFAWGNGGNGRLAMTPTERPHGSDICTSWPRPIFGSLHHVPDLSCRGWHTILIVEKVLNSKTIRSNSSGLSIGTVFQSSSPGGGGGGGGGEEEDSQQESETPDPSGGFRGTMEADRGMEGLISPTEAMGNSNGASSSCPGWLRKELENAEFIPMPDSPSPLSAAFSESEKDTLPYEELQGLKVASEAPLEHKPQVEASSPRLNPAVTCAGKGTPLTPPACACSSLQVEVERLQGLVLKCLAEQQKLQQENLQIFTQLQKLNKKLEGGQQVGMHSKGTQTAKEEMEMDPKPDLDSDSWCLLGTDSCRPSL

PDPK1 = molecular target: T2, PDPK1 (Homo sapiens, UniProt O15530)
T2 sequence (O15530 1-556): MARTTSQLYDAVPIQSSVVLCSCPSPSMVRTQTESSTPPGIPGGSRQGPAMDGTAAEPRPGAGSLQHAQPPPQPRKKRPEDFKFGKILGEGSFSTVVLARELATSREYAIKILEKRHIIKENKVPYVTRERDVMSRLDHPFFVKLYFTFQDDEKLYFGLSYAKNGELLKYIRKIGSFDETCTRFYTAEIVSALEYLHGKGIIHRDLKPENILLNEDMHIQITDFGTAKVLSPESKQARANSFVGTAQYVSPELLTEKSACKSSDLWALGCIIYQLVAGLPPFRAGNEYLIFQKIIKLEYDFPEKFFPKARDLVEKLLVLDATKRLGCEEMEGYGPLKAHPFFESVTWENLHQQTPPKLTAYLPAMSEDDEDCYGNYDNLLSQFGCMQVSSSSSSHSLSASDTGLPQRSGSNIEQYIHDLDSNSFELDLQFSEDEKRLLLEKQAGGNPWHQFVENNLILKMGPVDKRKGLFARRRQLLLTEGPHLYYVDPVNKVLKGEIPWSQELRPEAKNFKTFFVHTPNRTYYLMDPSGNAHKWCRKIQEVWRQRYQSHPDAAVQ

TEC = molecular target: T3, TEC (Homo sapiens, UniProt P42680)
T3 sequence (P42680 1-631): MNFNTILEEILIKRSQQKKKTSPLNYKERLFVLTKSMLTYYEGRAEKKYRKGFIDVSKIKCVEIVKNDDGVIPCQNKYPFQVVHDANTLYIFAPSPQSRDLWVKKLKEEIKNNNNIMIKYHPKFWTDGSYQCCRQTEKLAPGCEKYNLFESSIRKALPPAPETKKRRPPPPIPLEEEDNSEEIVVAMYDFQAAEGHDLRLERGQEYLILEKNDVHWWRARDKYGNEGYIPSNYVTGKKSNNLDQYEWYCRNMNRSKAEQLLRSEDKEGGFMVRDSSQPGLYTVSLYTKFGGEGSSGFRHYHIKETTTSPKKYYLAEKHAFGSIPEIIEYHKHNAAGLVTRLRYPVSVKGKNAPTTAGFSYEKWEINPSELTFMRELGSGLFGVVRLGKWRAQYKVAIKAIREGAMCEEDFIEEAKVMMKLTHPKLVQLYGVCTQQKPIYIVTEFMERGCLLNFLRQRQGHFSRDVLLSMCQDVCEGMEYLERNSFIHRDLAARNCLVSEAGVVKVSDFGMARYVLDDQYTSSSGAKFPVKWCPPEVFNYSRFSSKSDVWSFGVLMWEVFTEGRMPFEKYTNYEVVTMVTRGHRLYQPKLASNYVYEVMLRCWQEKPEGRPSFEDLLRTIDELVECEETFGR

Chain of JAK2 (O60674 whole entry): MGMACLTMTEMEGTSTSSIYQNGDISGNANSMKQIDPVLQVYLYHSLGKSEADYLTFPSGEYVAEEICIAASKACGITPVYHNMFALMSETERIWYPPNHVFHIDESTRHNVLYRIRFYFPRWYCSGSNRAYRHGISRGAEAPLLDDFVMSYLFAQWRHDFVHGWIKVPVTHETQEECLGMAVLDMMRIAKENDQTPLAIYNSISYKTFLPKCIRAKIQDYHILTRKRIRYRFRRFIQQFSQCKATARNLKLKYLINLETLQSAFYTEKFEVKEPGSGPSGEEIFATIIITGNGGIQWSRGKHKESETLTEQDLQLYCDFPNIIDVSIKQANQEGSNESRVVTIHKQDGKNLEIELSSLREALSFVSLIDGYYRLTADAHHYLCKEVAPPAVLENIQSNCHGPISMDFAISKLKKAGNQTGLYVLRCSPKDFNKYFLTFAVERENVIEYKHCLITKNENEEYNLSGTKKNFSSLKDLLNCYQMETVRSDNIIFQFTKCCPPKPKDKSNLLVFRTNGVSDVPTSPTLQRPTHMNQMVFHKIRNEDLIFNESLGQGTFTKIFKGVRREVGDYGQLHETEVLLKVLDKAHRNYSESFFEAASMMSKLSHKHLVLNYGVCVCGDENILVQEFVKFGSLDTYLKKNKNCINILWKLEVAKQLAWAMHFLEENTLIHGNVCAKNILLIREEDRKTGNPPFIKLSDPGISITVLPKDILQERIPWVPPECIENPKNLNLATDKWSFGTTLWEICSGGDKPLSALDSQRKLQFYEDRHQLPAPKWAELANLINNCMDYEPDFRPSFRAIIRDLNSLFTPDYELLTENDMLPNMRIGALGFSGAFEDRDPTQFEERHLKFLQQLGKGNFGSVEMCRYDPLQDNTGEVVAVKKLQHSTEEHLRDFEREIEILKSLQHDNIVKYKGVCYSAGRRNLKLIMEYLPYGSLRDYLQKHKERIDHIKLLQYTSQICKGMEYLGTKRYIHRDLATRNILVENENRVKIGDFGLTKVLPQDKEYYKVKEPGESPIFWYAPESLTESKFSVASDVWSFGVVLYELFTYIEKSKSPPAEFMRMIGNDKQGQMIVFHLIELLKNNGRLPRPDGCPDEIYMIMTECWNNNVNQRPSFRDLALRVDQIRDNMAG

With `CN1CCN(c2ccc(Nc3ncc(C#N)c(Nc4ccccc4C(N)=O)n3)cc2)CC1.Cl` [TCMDC-134116] the Kd (JAK2) was 285 nM and 185 nM, the Kd (NEK9) was 396 nM and 299 nM and the Kd (PDPK1) was 605 nM and 503 nM. The Kd (TEC) was 137 nM and 146 nM.
